In ChEMBL document CHEMBL1201862, “PubChem BioAssay data set” (2004):
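All cell lines were grown in 96-well plates and treated with compound for 48 hours. Here, GI50 denotes the concentration required for 50% inhibition of growth.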 The source made the active and inactive calls. Cut-off read from the data, not from the text of the source: active = GI50 up to about 1.1 µM and inactive = higher.

What was measured:
Assay in all cases: NCI-60 cell line screen, 48 h
[1] = tested on: ACHN
[2] = tested on: CAKI-1
[3] = tested on: CCRF-CEM
[4] = tested on: DU-145
[5] = tested on: HCC 2998
[6] = tested on: HCT-116
[7] = tested on: HL-60
[8] = tested on: HOP-92
[9] = tested on: MCF7
[10] = tested on: MDA-MB-435
[11] = tested on: NCI-H460
[12] = tested on: NCI-H522
[13] = tested on: OVCAR-4
[14] = tested on: SF-268
[15] = tested on: SF-295
[16] = tested on: SK-MEL-28
[17] = tested on: SK-OV-3
[18] = tested on: SW-620
[19] = tested on: T47D
[20] = tested on: U-251

| Compound | GI50 [1] | GI50 [2] | GI50 [3] | GI50 [4] | GI50 [5] | GI50 [6] | GI50 [7] | GI50 [8] | GI50 [9] | GI50 [10] | GI50 [11] | GI50 [12] | GI50 [13] | GI50 [14] | GI50 [15] | GI50 [16] | GI50 [17] | GI50 [18] | GI50 [19] | GI50 [20] |
| --- | --- | --- | --- | --- | --- | --- | --- | --- | --- | --- | --- | --- | --- | --- | --- | --- | --- | --- | --- | --- |
| COc1ccc(/C=c2/[nH]c(=O)/c(=C\c3ccc(OCc4ccccc4)cn3)[nH]c2=O)cc1 | > 100 µM (inactive) | > 100 µM (inactive) | 13.9 µM (inactive) | > 100 µM (inactive) | > 100 µM (inactive) | 48 µM (inactive) | 6.93 µM (inactive) | 23.2 µM (inactive) | 46 µM (inactive) | 19.9 µM (inactive) | 63.8 µM (inactive) | 71.4 µM (inactive) | > 100 µM (inactive) | 41.2 µM (inactive) | 40.6 µM (inactive) | > 100 µM (inactive) | 55 µM (inactive) | 62.4 µM (inactive) | > 100 µM (inactive) | 40.6 µM (inactive) |
| CN(C)c1ccc(/C=C(\NC(=O)c2ccccc2)C2NC(Cc3c[nH]c4ccccc34)C(=O)O2)cc1 (stereo not given) | 8.85 µM (inactive) | > 59 µM (inactive) | 8.91 µM (inactive) | > 100 µM (inactive) | 6.12 µM (inactive) | 19.2 µM (inactive) | 6.65 µM (inactive) | > 24.1 µM (inactive) | 6.65 µM (inactive) | 10.8 µM (inactive) | 3.19 µM (inactive) | 3.46 µM (inactive) | 12.3 µM (inactive) | 11.6 µM (inactive) | 36.1 µM (inactive) | > 100 µM (inactive) | > 59.4 µM (inactive) | 9.42 µM (inactive) | > 54 µM (inactive) | 4.49 µM (inactive) |
| COC(=O)C12OCC34C(CC5C(C)=C(O)C(=O)CC5(C)C3C(O)C1O)OC(=O)C(OC(=O)C=C(C)C)C24 (stereo not given) | 0.247 µM (active) | > 500 µM (inactive) | 307 µM (inactive) | 0.318 µM (active) | 453 µM (inactive) | > 489 µM (inactive) | 498 µM (inactive) | 234 µM (inactive) | 256 µM (inactive) | < 0.215 µM (active) | 161 µM (inactive) | 301 µM (inactive) | < 0.215 µM (active) | > 500 µM (inactive) | > 500 µM (inactive) | 423 µM (inactive) | > 500 µM (inactive) | > 500 µM (inactive) | 0.0132 µM (active) | 316 µM (inactive) |
| COC(=O)c1sc2c(c1C(=O)OC)/C(=N/C(C)(C)C)S/C2=N\C(C)(C)C | 18.7 µM (inactive) | 17.2 µM (inactive) | 15.6 µM (inactive) | 15.5 µM (inactive) | 14.8 µM (inactive) | 15.6 µM (inactive) | 13.6 µM (inactive) | 18.7 µM (inactive) | 17.7 µM (inactive) | 18.4 µM (inactive) | 18.5 µM (inactive) | 18.5 µM (inactive) | 17.7 µM (inactive) | 19.1 µM (inactive) | 19.2 µM (inactive) | 17.3 µM (inactive) | 25.4 µM (inactive) | 17.9 µM (inactive) | 12.2 µM (inactive) | 17.1 µM (inactive) |
| CCCCC1Cc2cc(OC)ccc2-c2n1c1cc(OC)ccc1[n+]2C.CCCCC1Cc2cc(OC)ccc2-c2n1c1ccc(OC)cc1[n+]2C (stereo not given) | 12.6 µM (inactive) | 35.8 µM (inactive) | 2.64 µM (inactive) | 5.32 µM (inactive) | 0.703 µM (active) | 3.22 µM (inactive) | 0.261 µM (active) | 0.427 µM (active) | 0.953 µM (active) | 0.944 µM (active) | 3.65 µM (inactive) | 0.681 µM (active) | 2.31 µM (inactive) | 1.3 µM (inactive) | 2.39 µM (inactive) | 6.3 µM (inactive) | 10 µM (inactive) | 2.82 µM (inactive) | 0.656 µM (active) | 0.332 µM (active) |
| CC(=O)N1c2ccccc2C(C)(C)OC1C(Cl)(Cl)Cl (stereo not given) | 41.1 µM (inactive) | 46.6 µM (inactive) | 27.7 µM (inactive) | 42.1 µM (inactive) | 23.2 µM (inactive) | 28.8 µM (inactive) | 16.8 µM (inactive) | 21 µM (inactive) | 23.6 µM (inactive) | 25.5 µM (inactive) | 33.3 µM (inactive) | 23.3 µM (inactive) | 42.5 µM (inactive) | 37.3 µM (inactive) | 37.6 µM (inactive) | 47.6 µM (inactive) | 37.8 µM (inactive) | 34 µM (inactive) | 84.7 µM (inactive) | 33.3 µM (inactive) |
| COc1cc2c3c(c1OC)-c1cc4c(cc1CC3(C#N)N(C(=O)c1ccccc1)CC2)OCO4 (stereo not given) | 40.4 µM (inactive) | 37.9 µM (inactive) | > 100 µM (inactive) | > 100 µM (inactive) | > 100 µM (inactive) | 31.9 µM (inactive) | > 100 µM (inactive) | 8.39 µM (inactive) | 91.6 µM (inactive) | > 88.5 µM (inactive) | 52.6 µM (inactive) | 28.2 µM (inactive) | 15.3 µM (inactive) | 31.6 µM (inactive) | 33.3 µM (inactive) | 59.7 µM (inactive) | 25.7 µM (inactive) | 87.9 µM (inactive) | > 100 µM (inactive) | 21.1 µM (inactive) |
| CN1CCN(C2=CC(=O)c3c(O)ccc(O)c3C2=O)CC1 | 1.54 µM (inactive) | 1.6 µM (inactive) | 0.501 µM (active) | 1.75 µM (inactive) | 1.82 µM (inactive) | 0.208 µM (active) | 0.298 µM (active) | 1.86 µM (inactive) | 0.319 µM (active) | 0.188 µM (active) | 1.9 µM (inactive) | 1.71 µM (inactive) | 2.02 µM (inactive) | 1.57 µM (inactive) | 1.69 µM (inactive) | 1.64 µM (inactive) | 5.02 µM (inactive) | 0.618 µM (active) | 0.69 µM (active) | 1.61 µM (inactive) |
| Fc1ccc(C(OCCN2CCN(CCCCl)CC2)c2ccc(F)cc2)cc1 | 46 µM (inactive) | 31 µM (inactive) | 40.2 µM (inactive) | 28.9 µM (inactive) | 18.5 µM (inactive) | 19.5 µM (inactive) | 0.391 µM (active) | 12.5 µM (inactive) | 21.6 µM (inactive) | 17.1 µM (inactive) | 21.8 µM (inactive) | 18.7 µM (inactive) | 24.9 µM (inactive) | 24.5 µM (inactive) | 22.9 µM (inactive) | 38.4 µM (inactive) | 48.6 µM (inactive) | 32.2 µM (inactive) | 22.3 µM (inactive) | 41 µM (inactive) |
| Cn1c(-c2cccs2)cc(-c2cccs2)c1-c1cccs1 | 75 µM (inactive) | > 100 µM (inactive) | 67 µM (inactive) | > 100 µM (inactive) | 37.8 µM (inactive) | 34.6 µM (inactive) | 33 µM (inactive) | > 100 µM (inactive) | 2.82 µM (inactive) | 53.2 µM (inactive) | 78.7 µM (inactive) | 21.3 µM (inactive) | 39.1 µM (inactive) | > 81.8 µM (inactive) | > 81.3 µM (inactive) | > 100 µM (inactive) | > 100 µM (inactive) | > 100 µM (inactive) | 2.78 µM (inactive) | > 79.3 µM (inactive) |
| CCCCCCCCCCCCCCCCNc1ccn(C2CC(O)C(COC(c3ccccc3)(c3ccccc3)c3ccc(OC)cc3)O2)c(=O)n1 (stereo not given) | > 100 µM (inactive) | > 100 µM (inactive) | 67.8 µM (inactive) | > 100 µM (inactive) | 83.6 µM (inactive) | 93.5 µM (inactive) | > 100 µM (inactive) | > 100 µM (inactive) | > 100 µM (inactive) | > 100 µM (inactive) | > 100 µM (inactive) | > 100 µM (inactive) | > 100 µM (inactive) | > 100 µM (inactive) | > 100 µM (inactive) | > 100 µM (inactive) | > 100 µM (inactive) | > 100 µM (inactive) | > 100 µM (inactive) | 64.1 µM (inactive) |
